The results in this text go back to PMC2724550, “Citrus auraptene suppresses cyclin D1 and significantly delays N-methyl nitrosourea induced mammary carcinogenesis in female Sprague-Dawley rats” (BMC Cancer, 2009).

A short description of series [1]: Rat body weight and gross behavior in the tumor study. It counts as in vivo, female Sprague-Dawley rats. From the text:
Rats (28 days of age) were divided up randomly into groups of 24–26 each and were handled daily to get them accustomed to human touch. At 42 days of age the rats were shifted to the test diet. Control group and MNU only group were fed with Teklad (powdered diet) only. MNU/Auraptene 200 ppm group and MNU/Auraptene 500 ppm group received 200 ppm and 500 ppm of auraptene respectively, mixed in the diet for the duration of the study. The doses were selected from the pilot study conducted with a small number of animals. In addition to the 200 ppm dose of auraptene, which indicated the chemopreventive effect of auraptene, a higher dose of auraptene at 500 ppm was added to this study to see any increased chemopreventive effects. Auraptene has been administered in diet at 100 ppm and 500 ppm in other models of cancer. The diet was prepared once a week and stored in cold room. The food was replaced on Monday, Wednesday and Friday or as needed. […] At 50 days of age all the groups except the control group received intraperitoneal MNU injection (50 mg/kg bw in sterile acidified saline). The control group received vehicle only. […] Any tumors felt during palpation were recorded by location. […]
The rat body weight data was compared between groups by One-Way ANOVA followed by Tukey test. […] The cell proliferation assays and western blot data were analyzed by One-Way ANOVA followed by Tukey test.

The next series has as its system MDA-MB-231 cells. The series can be described thus: MDA-MB-231 cell proliferation assay (MTT). It counts as cell-based, human. The procedure:
The human breast carcinoma cell line MDA-MB-231 was obtained from ATCC (Manassas, VA) and grown in a sterile humidified environment at 37°C and 5% CO2: 95% air with complete DMEM media. The proliferation study was done by MTT assay which uses a tetrazolium compound [3-(4, 5-dimethylthiazol-2-yl)-2,5-diphenyltetrazolium bromide; MTT], which is converted into a formazan product by living cells. The MDA-MB-231 cells were plated in a 96 well plate at 12,500 cells/well at a confluency of 40%. The serum containing media was replaced with serum free media 5 hrs before treatment. The cells were then treated with auraptene at 1 – 50 μM auraptene in DMSO (0.1%, v/v). The control cells received vehicle only (DMSO, 0.1% v/v). After 24 hrs of treatment the cells were treated with MTT for 2 h and the absorbance was measured at 540 nm.
Figure 2 Effects of auraptene on human breast carcinoma cells. (A) Effects of auraptene on MDA-MB-231 cell proliferation. Cells were serum starved for 5 h and then treated with 1–50 μM auraptene in […]. Cell proliferation was assessed using the MTT reagent. Figures represent % vehicle control (means ± S.E.) # Replicates = 2 plates at 6 wells each for the treatment groups and 12 wells for the control group (* statistically different from control group, p < 0.05, One-way ANOVA, Tukey test). (B) Effects of auraptene on MCF-7 cell proliferation. Cells were serum starved for 24 h. At 22 h after serum starvation the cells were treated with 1–50 μM auraptene in […]. At 24 h serum starvation, the cells were treated with IGF-1 (10 ng/mL). Cell proliferation was assessed using the MTS reagent. Figures represent % vehicle control (mean± S.E.) # Replicates = 2 plates at 6 wells each for the treatment groups. (* statistically different from IGF-1 group, p < 0.05, One-way ANOVA, Tukey test). (C) Effects of auraptene on IGF-1 induced cyclin D1 expression. MCF-7 cells were serum starved for 24 h. At 22 h after serum starvation the cells were treated with10 μM auraptene in […]. At 24 h serum starvation the cells were treated with IGF-1 (10 ng/mL). The cells were harvested at the 15, 30 minutes and at 1 h, 2 h, 4 h, 8 h and 24 h. The cell lysates were probed for cyclin D1. […] The lower band (36 KD) is cyclin D1 and the upper band is β-actin (43 KD).

As to `CC(C)=CCC/C(C)=C/COc1ccc2ccc(=O)oc2c1` [auraptene], the “effect on rat body weight” value in series [1] (200 and 500 ppm in diet, MNU treated groups) is “did not significantly affect body weight”. The tolerability in rats result in series [1] (dietary auraptene up to 500 ppm, no observable change in gross behavior, no significant weight loss) is given as “well tolerated”. For the same compound, the “reduction in MDA-MB-231 cell proliferation” value in the series with MDA-MB-231 cells (10 μM auraptene, 24 hrs, MTT) was “about 23%”. For the same compound, the “suppression of MDA-MB-231 cell proliferation” value is recorded as 85% in the series on MDA-MB-231 cells (25 μM auraptene, 24 hrs, MTT) and “did not achieve any higher suppression of cell proliferation” in the series with MDA-MB-231 cells (50 μM auraptene compared with 25 μM). Besides, the IC50 in the series on MDA-MB-231 cells (Homo sapiens, MDA-MB-231, 24 hrs treatment, serum free media, MTT, read-out: concentration suppressing MDA-MB-231 cell proliferation by 50%) amounted to 12 µM.
